ChEMBL document CHEMBL1142902, “Inhibition of FLT3 and PDGFR tyrosine kinase activity by bis(benzo[b]furan-2-yl)methanones” (Bioorg Med Chem, 2007)

Assays:
[1] = molecular target: T1, Receptor-type tyrosine-protein kinase FLT3 (Homo sapiens, UniProt P36888); assay: Inhibition of endogenous FLT3 autophosphorylation in EOL1 cells; type: cell-based
T1 sequence (P36888 whole entry): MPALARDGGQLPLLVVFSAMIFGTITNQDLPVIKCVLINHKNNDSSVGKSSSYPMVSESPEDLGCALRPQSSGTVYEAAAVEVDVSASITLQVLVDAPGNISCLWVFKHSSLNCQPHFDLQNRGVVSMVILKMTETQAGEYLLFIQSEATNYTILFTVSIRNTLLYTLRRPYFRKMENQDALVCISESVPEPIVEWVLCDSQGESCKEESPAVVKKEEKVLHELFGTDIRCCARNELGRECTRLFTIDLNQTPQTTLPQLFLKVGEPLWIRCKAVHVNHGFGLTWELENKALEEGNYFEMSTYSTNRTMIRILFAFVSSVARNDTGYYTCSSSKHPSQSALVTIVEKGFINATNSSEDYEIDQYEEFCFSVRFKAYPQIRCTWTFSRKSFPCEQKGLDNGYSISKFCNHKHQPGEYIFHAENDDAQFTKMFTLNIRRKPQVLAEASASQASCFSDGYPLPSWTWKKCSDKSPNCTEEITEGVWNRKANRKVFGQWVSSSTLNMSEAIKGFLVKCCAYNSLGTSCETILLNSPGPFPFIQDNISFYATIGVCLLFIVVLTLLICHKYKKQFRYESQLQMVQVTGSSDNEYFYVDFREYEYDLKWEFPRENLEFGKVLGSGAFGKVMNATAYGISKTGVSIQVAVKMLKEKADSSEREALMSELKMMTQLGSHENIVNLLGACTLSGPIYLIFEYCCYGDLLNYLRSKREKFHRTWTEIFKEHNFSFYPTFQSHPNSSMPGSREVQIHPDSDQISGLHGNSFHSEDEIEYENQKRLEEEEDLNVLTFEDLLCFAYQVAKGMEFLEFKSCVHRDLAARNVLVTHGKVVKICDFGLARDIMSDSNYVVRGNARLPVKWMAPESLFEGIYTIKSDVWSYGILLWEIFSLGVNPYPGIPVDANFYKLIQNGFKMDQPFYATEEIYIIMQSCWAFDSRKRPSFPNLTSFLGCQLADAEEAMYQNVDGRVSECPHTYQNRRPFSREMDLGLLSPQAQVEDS

[2] = molecular target: Platelet-derived growth factor receptor beta (Mus musculus, UniProt P05622); assay: Inhibition of endogenous PDGFRbeta autophosphorylation in Swiss 3T3 fibroblasts
Chain of Platelet-derived growth factor receptor beta (P05622 whole entry): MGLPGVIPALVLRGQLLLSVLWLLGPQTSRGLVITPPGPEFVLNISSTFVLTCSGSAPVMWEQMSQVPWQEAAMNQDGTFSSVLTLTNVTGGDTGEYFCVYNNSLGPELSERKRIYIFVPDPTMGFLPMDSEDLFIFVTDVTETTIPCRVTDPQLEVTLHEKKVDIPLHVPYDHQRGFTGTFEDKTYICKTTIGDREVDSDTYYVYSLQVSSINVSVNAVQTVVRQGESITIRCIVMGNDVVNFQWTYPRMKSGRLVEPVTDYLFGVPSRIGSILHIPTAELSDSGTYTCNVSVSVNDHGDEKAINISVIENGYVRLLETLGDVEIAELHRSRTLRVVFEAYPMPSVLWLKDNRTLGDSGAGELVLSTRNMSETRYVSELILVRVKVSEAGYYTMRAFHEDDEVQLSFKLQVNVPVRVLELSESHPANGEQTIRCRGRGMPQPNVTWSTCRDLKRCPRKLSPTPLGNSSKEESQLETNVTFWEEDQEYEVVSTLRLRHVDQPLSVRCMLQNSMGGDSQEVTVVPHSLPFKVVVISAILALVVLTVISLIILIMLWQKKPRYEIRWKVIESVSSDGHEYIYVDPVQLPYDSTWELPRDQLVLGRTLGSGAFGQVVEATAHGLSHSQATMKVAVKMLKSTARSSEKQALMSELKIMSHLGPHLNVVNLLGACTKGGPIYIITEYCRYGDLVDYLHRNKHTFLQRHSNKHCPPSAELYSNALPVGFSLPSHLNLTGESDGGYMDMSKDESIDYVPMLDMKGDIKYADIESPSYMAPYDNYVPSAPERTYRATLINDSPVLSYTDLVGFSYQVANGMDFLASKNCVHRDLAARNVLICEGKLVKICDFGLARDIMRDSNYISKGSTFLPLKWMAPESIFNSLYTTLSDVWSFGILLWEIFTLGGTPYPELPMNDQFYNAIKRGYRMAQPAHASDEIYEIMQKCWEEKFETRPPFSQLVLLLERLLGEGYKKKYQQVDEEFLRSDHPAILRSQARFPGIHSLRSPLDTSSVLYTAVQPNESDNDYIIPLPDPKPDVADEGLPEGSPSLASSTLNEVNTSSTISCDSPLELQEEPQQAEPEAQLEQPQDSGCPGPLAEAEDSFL

IC50 [1] [µM] | IC50 [2] [µM] | SMILES
> 30 | 1 | COc1ccc2oc(C(=O)c3cc4cc(OC)ccc4o3)cc2c1
> 30 | > 30 | COc1ccc2cc(C(=O)c3cc4ccc(OC)cc4o3)oc2c1
– | 0.6 | O=C(c1cc2cc(O)ccc2o1)c1cc2cc(O)ccc2o1
– | 9.7 | O=C(c1cc2ccc(O)cc2o1)c1cc2ccc(O)cc2o1
> 30 | 20 | O=C(c1cc2cccc(O)c2o1)c1cc2cccc(O)c2o1
– | 0.7 | CC(=O)Oc1ccc2oc(C(=O)c3cc4cc(OC(C)=O)ccc4o3)cc2c1
– | 1.07 | O=C(c1cc2ccccc2[nH]1)c1cc2ccccc2o1
– | 0.2 | O=C(c1cc2cc(O)ccc2[nH]1)c1cc2cc(O)ccc2o1
– | 1.2 | O=C(c1cc2ccccc2o1)c1cc2ccccc2o1
– | 1.2 | Nc1ccc2oc(C(=O)c3cc4cc(N)ccc4o3)cc2c1
> 30 | > 30 | COc1cccc2oc(C(=O)c3cc4c(OC)cccc4o3)cc12
> 30 | > 30 | COc1cccc2cc(C(=O)c3cc4cccc(OC)c4o3)oc12
– | 5.4 | Cc1cc2ncc(-c3ccccc3)nc2cc1C [AG1295]
